A word on the IC50: it is the concentration that inhibits the measured activity by half.

Among the data in patent publication US12441725B2, “ISO-citrate dehydrogenase (IDH) inhibitor” (ZHEJIANG METON PHARMACEUTICAL CO., LTD, priority 2019, dated 2025) are IC50 values, retold here.

One assay deals with T1, IDH1 R132H (Homo sapiens, UniProt O75874, R132H).
T1 construct: 6xHis
The experiment in a line: Biochemical assay for IDH inhibition (NADPH fluorescence), mutant IDH1 R132H. The conditions noted are these: 50 nM IDH1-R132H, 1 hour pre-incubation, in triplet. In outline:
(§1)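 The read-out was the linear-phase loss of NADPH fluorescence (340/460 nm) over 15 min, background-subtracted and normalized to DMSO wells, giving triplicate IC50 values. Beforehand, R132H (50 nM) or R132C (25 nM) was exposed to compound for 1 h at room temperature with 1.33 mM α-KG at pH 7.5, and the reaction was triggered by adding an 80 μM NADPH solution.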

The next assay deals with T2, IDH1 R132C (Homo sapiens, UniProt O75874, R132C).
T2 construct: 6xHis
T2 sequence (O75874 whole entry R132C): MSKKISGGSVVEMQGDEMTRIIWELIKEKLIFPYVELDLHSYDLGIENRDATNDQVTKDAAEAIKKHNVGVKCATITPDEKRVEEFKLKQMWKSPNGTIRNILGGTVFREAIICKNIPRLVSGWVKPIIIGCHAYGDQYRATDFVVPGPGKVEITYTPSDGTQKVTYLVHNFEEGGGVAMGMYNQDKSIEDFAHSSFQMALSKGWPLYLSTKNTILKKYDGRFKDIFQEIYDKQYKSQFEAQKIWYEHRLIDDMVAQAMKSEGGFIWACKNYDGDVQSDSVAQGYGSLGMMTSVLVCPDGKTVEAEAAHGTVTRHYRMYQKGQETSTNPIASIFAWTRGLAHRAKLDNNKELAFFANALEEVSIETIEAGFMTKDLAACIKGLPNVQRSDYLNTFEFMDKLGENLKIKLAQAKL
The experiment in a line: Biochemical assay for IDH inhibition (NADPH fluorescence), mutant IDH1 R132C. To be noted: 25 nM IDH1-R132C, 1 hour pre-incubation, in triplet. In outline:
as §1

In assay [1] the target is T3, IDH (endogenous IDH1 R132C) in HT1080 cell (Homo sapiens, UniProt O75874, R132C).
T3 construct: which harbor endogenous heterozygous IDH1 R132C and R132H mutation respectively and accumulate D-2-HG
T3 sequence (O75874 2-414 R132C): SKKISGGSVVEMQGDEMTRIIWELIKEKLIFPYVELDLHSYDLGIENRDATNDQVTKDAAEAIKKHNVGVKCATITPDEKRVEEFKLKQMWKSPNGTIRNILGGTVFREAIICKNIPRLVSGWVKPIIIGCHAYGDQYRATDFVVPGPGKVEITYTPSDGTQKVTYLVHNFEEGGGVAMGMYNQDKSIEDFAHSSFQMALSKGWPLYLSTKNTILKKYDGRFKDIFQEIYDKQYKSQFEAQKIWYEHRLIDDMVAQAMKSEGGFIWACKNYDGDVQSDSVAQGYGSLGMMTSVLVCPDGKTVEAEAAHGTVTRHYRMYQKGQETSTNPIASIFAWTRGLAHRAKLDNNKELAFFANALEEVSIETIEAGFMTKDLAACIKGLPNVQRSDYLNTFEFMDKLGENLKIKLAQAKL
The experiment in a line: Cell-based assay for IDH inhibition (decrease of D-2-HG) in HT1080 cells. To be noted: human fibrosarcoma cell line HT1080, 16 hours treatment, D-2-HG by LC-MS, in triplet. The method in brief: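 LC-MS/MS quantification of D-2-HG, normalized to glutamate, follows a 16 h compound exposure of IDH1 R132C HT1080 cells in DMEM with 10% FBS. Extraction uses pre-chilled 40% methanol/40% acetonitrile in water. Triplicate determinations; IC50 from D-2-HG levels relative to DMSO-treated cells.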

T1 sequence (O75874 whole entry R132H): as the sequence (O75874 whole entry R132C) above, with C132H counted along it

Regarding `CCN1Cc2c(ccnc2N[C@@H](C)c2cc(C)c(-c3ccnc(C(F)(F)F)c3)cn2)C1=O` [Compound 45, (S)-2-ethyl-4-((1-(4-methyl-2′-(trifluoromethyl)-[3,4′-bipyridin]-6-yl)ethyl)amino)-2,3-dihydro-1H-pyrrolo[3,4-c]pyridin-1-one], the IC50 (at IDH1 R132H; at IDH1 R132C; in assay [1]) was more than 1000 nM in each case.

Consider `CCN1Cc2c(ccnc2N[C@@H](C)c2ccc(-c3ccnc(C(C)(C)C)c3)cn2)C1=O` [Compound 46, (S)-4-((1-(2′-(tert-butyl)-[3,4′-bipyridin]-6-yl)ethyl)amino)-2-ethyl-2,3-dihydro-1H-pyrrolo[3,4-c]pyridin-1-one], for which the IC50 (at IDH1 R132H; at IDH1 R132C; in assay [1]) was more than 1000 nM in each case.

As for `CCN1Cc2c(ccnc2N[C@@H](C)c2ncc(-c3ccccc3)cn2)C1=O` [Compound 47, (S)-2-ethyl-4-((1-(5-phenylpyrimidin-2-yl)ethyl)amino)-2,3-dihydro-1H-pyrrolo[3,4-c]pyridin-1-one], the IC50 (at IDH1 R132H; at IDH1 R132C; in assay [1]) was more than 1000 nM each time.

As to `CCN1Cc2c(ccnc2N[C@@H](C)c2ncc(-c3ccc(F)c(C)c3)cn2)C1=O` [Compound 48, (S)-2-ethyl-4-((1-(5-(4-fluoro-3-methylphenyl)pyrimidin-2-yl)ethyl)amino)-2,3-dihydro-1H-pyrrolo[3,4-c]pyridin-1-one], the IC50 (on IDH1 R132H; on IDH1 R132C; in assay [1]) was more than 1000 nM in each case.

With `CCN1Cc2c(ccnc2N[C@@H](C)c2ncc(-c3cccc(C)c3F)cn2)C1=O` [Compound 49, (S)-2-ethyl-4-((1-(5-(2-fluoro-3-methylphenyl)pyrimidin-2-yl)ethyl)amino)-2,3-dihydro-1H-pyrrolo[3,4-c]pyridin-1-one], the IC50 (on IDH1 R132H; at IDH1 R132C; in assay [1]) was more than 1000 nM throughout.

On to `CCN1Cc2c(ccnc2N[C@@H](C)c2ncc(-c3ccc(OC)cc3)cn2)C1=O` [Compound 50, (S)-2-ethyl-4-((1-(5-(4-methoxyphenyl)pyrimidin-2-yl)ethyl)amino)-2,3-dihydro-1H-pyrrolo[3,4-c]pyridin-1-one], for which the IC50 (at IDH1 R132H; on IDH1 R132C; in assay [1]) was more than 1000 nM in each case.

With `CCN1Cc2c(ccnc2N[C@@H](C)c2ccc(Cc3ccc(F)c(C)c3)c(F)c2)C1=O` [Compound 51, (S)-2-ethyl-4-((1-(3-fluoro-4-(4-fluoro-3-methylbenzyl)phenyl)ethyl)amino)-2,3-dihydro-1H-pyrrolo[3,4-c]pyridin-1-one], the IC50 on IDH1 R132H was 100 to 500 nM; on IDH1 R132C it was 100 to 500 nM; in assay [1], more than 1000 nM.

Consider `CCN1Cc2c(ccnc2N[C@@H](C)c2ccc(Cc3ccccc3)c(F)c2)C1=O` [Compound 52, (S)-4-((1-(4-benzyl-3-fluorophenyl)ethyl)amino)-2-ethyl-2,3-dihydro-1H-pyrrolo[3,4-c]pyridin-1-one], for which the IC50 at IDH1 R132H was 100 to 500 nM; at IDH1 R132C, 100 to 500 nM; in assay [1], more than 1000 nM.

Consider `CCN1Cc2c(ccnc2N[C@@H](C)c2ncc(Cc3ccc(F)c(C)c3)cn2)C1=O` [Compound 54, (S)-2-ethyl-4-((1-(5-(4-fluoro-3-methylbenzyl)pyrimidin-2-yl)ethyl)amino)-2,3-dihydro-1H-pyrrolo[3,4-c]pyridin-1-one], for which the IC50 (on IDH1 R132H; on IDH1 R132C; in assay [1]) was more than 1000 nM each time.

With `CCN1Cc2c(ccnc2N[C@@H](C)c2ccc(CN3CCC(F)(F)CC3)c(F)c2)C1=O` [Compound 55, (S)-4-((1-(4-((4,4-difluoropiperidin-1-yl)methyl)-3-fluorophenyl)ethyl)amino)-2-ethyl-2,3-dihydro-1H-pyrrolo[3,4-c]pyridin-1-one], the IC50 (at IDH1 R132H; at IDH1 R132C; in assay [1]) was more than 1000 nM in each case.

Turning to `CCN1Cc2c(ccnc2N[C@@H](C)c2cn(-c3ccnc(C(C)(C)C)c3)cn2)C1=O` [Compound 56, (S)-4-((1-(1-(2-(tert-butyl)pyridin-4-yl)-1H-imidazol-4-yl)ethyl)amino)-2-ethyl-2,3-dihydro-1H-pyrrolo[3,4-c]pyridin-1-one], the half-inhibitory concentration (IC50) (on IDH1 R132H; at IDH1 R132C; in assay [1]) was more than 1000 nM each time.

Consider `CCN1Cc2c(N[C@@H](C)c3cn(-c4ccc(F)cc4)cn3)ncc(F)c2C1=O` [Compound 57, (S)-2-ethyl-7-fluoro-4-((1-(1-(4-fluorophenyl)-1H-imidazol-4-yl)ethyl)amino)-2,3-dihydro-1H-pyrrolo[3,4-c]pyridin-1-one], for which the IC50 (on IDH1 R132H; at IDH1 R132C; in assay [1]) was more than 1000 nM each time.

Regarding `CCN1Cc2c(ccnc2N[C@H](C)c2cn(-c3ccc(Cl)cc3)cn2)C1=O` [Compound 58, (R)-4-((1-(1-(4-chlorophenyl)-1H-imidazol-4-yl)ethyl)amino)-2-ethyl-2,3-dihydro-1H-pyrrolo[3,4-c]pyridin-1-one], the concentration for half-maximal inhibition (IC50) (on IDH1 R132H; at IDH1 R132C; in assay [1]) was more than 1000 nM each time.

As for `CCN1Cc2c(ccnc2N[C@@H](C)c2ccc(-n3ccc(C)n3)c(F)c2)C1=O` [Compound 59, (S)-2-ethyl-4-((1-(3-fluoro-4-(3-methyl-1H-pyrazol-1-yl)phenyl)ethyl)amino)-2,3-dihydro-1H-pyrrolo[3,4-c]pyridin-1-one], the IC50 (on IDH1 R132H; on IDH1 R132C; in assay [1]) was more than 1000 nM in each case.

`CCN1Cc2c(ccnc2N[C@@H](C)c2ccc(C(=O)c3ccccc3)c(F)c2)C1=O` [Compound 60, (S)-4-((1-(4-benzoyl-3-fluorophenyl)ethyl)amino)-2-ethyl-2,3-dihydro-1H-pyrrolo[3,4-c]pyridin-1-one]: the IC50 (on IDH1 R132H; on IDH1 R132C; in assay [1]) was more than 1000 nM throughout.

For the compound `CCN1Cc2c(ccnc2N[C@@H](C)c2ccc(C(=O)c3cccnc3)c(F)c2)C1=O` [Compound 61, (S)-2-ethyl-4-((1-(3-fluoro-4-nicotinoylphenyl)ethyl)amino)-2,3-dihydro-1H-pyrrolo[3,4-c]pyridin-1-one], the IC50 (on IDH1 R132H; on IDH1 R132C; in assay [1]) was more than 1000 nM throughout.

For `CCN1Cc2c(ccnc2N[C@@H](C)c2ccc(C(=O)NC3CCCCC3)c(Cl)c2)C1=O` [Compound 62, (S)-2-chloro-N-cyclohexyl-4-(1-((2-ethyl-1-oxo-2,3-dihydro-1H-pyrrolo[3,4-c]pyridin-4-yl)amino)ethyl)benzamide], the IC50 (at IDH1 R132H; at IDH1 R132C; in assay [1]) was more than 1000 nM each time.

For the compound `CCN1Cc2c(ccnc2N[C@@H](C)c2cc(C(C)(C)C)ncc2F)C1=O` [Compound 63, (S)-4-((1-(2-(tert-butyl)-5-fluoropyridin-4-yl)ethyl)amino)-2-ethyl-2,3-dihydro-1H-pyrrolo[3,4-c]pyridin-1-one], the IC50 (at IDH1 R132H; at IDH1 R132C; in assay [1]) was more than 1000 nM throughout.

Take `CCN1Cc2c(ccnc2N[C@@H](C)c2cc3cc(Cl)ccc3[nH]c2=O)C1=O` [Compound 64, (S)-6-chloro-3-(1-((2-ethyl-1-oxo-2,3-dihydro-1H-pyrrolo[3,4-c]pyridin-4-yl)amino)ethyl)quinolin-2(1H)-one]: the values for the IC50 (on IDH1 R132H; on IDH1 R132C; in assay [1]) were 100 to 500 nM, more than 1000 nM and more than 1000 nM, respectively.

With `CCN1Cc2c(N[C@@H](C)c3ccc(Oc4ccc(C)cc4)c(F)c3)ncnc2C1=O` [Compound 65, 6-ethyl-4-[[(1S)-1-[3-fluoro-4-(4-methylphenoxy)phenyl]ethyl]amino]-5H-pyrrolo[3,4-d]pyrimidin-7-one], the values for the IC50 (at IDH1 R132H; at IDH1 R132C; in assay [1]) were more than 1000 nM, more than 1000 nM and 100 to 500 nM, respectively.

As for `CCN1Cc2c(N[C@@H](C)c3ccc(-c4ccnc(C(C)(C)C)c4)c(F)c3)ncnc2C1=O` [Compound 66, (S)-4-((1-(4-(2-(tert-butyl)pyridin-4-yl)-3-fluorophenyl)ethyl)amino)-6-ethyl-5H-pyrrolo[3,4-d]pyrimidin-7(6H)-one], the half-inhibitory concentration (IC50) was 100 to 500 nM at IDH1 R132H, more than 1000 nM at IDH1 R132C and 500 to 1000 nM in assay [1].

`CCN1Cc2c(N[C@@H](C)c3ccc(-c4ccc(F)c(C)c4)c(F)c3)ncnc2C1=O` [Compound 67, (S)-4-((1-(2,4′-difluoro-3′-methyl-[1,1′-biphenyl]-4-yl)ethyl)amino)-6-ethyl-5H-pyrrolo[3,4-d]pyrimidin-7(6H)-one]: the IC50 is more than 1000 nM on IDH1 R132H, more than 1000 nM at IDH1 R132C and 100 to 500 nM in assay [1].

`CCN1Cc2c(ccnc2N[C@@H](C)c2ccc(C3CCCC3)c(F)c2)C1=O` [Compound 68, 4-[[(1S)-1-(4-cyclopentyl-3-fluoro-phenyl)ethyl]amino]-2-ethyl-3H-pyrrolo[3,4-c]pyridin-1-one]: the IC50 at IDH1 R132H is 500 to 1000 nM; on IDH1 R132C, more than 1000 nM; in assay [1] it was more than 1000 nM.

On to `CCN1Cc2c(ccnc2N[C@@H](C)c2ccc(-c3ccnc(C(C)(C)C(N)=O)c3)c(F)c2)C1=O` [Compound 69, 2-[4-[4-[(1S)-1-[(2-ethyl-1-oxo-3H-pyrrolo[3,4-c]pyridin-4-yl)amino]ethyl]-2-fluoro-phenyl]-2-pyridyl]-2-methyl-propanamide], for which the IC50 on IDH1 R132H was more than 1000 nM; on IDH1 R132C it was more than 1000 nM; in assay [1], 500 to 1000 nM.
